Assay [1] addresses T1, ATG16L1 Autophagy-related protein 16-1 (Homo sapiens, UniProt Q676U5).
T1 construct: 200 μL of lysate containing 5 mg/ml proteome was treated with 2 μL of 100× compound stock; endogenous in cells
As to the kind of experiment: Cysteine liganding, probe competition. The class given is binding. The gist of the method: (§1)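 Read-out is loss of desthiobiotin iodoacetamide labelling at cysteines, measured on streptavidin-enriched tryptic peptides. Compound preincubation ran 1 hr at 25° C in PBS lysate holding 5 mg/ml proteome before the probe was added.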

The target in assay [2] is T2, FASTKD5 FAST kinase domain-containing protein 5 (Homo sapiens, UniProt Q7L8L6).
T2 construct: 200 μL of lysate containing 5 mg/ml proteome was treated with 2 μL of 100× compound stock; endogenous in cells
T2 sequence (Q7L8L6 28-764): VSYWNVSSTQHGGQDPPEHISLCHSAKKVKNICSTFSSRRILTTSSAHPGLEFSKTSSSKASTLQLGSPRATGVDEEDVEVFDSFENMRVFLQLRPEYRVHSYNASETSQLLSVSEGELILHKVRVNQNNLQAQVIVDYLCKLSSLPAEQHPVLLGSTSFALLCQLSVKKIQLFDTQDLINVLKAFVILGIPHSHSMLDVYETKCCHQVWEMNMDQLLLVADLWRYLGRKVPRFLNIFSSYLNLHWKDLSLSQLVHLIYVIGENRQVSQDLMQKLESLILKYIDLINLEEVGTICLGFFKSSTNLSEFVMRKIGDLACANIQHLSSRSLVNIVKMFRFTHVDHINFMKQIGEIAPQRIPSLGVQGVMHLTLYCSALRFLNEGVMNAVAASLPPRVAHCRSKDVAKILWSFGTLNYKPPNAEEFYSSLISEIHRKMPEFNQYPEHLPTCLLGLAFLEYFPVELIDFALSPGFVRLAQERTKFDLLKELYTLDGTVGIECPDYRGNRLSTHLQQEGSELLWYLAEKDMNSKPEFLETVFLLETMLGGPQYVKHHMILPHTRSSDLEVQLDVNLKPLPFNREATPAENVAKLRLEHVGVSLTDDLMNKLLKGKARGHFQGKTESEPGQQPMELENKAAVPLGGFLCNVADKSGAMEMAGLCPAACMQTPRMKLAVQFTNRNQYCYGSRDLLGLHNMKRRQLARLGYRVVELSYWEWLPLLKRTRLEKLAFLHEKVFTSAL
As to the kind of experiment: Cysteine liganding, probe competition. The assay is classed as binding. The gist of the method:
as §1

Structures are written as SMILES.

T1 sequence (Q676U5 whole entry): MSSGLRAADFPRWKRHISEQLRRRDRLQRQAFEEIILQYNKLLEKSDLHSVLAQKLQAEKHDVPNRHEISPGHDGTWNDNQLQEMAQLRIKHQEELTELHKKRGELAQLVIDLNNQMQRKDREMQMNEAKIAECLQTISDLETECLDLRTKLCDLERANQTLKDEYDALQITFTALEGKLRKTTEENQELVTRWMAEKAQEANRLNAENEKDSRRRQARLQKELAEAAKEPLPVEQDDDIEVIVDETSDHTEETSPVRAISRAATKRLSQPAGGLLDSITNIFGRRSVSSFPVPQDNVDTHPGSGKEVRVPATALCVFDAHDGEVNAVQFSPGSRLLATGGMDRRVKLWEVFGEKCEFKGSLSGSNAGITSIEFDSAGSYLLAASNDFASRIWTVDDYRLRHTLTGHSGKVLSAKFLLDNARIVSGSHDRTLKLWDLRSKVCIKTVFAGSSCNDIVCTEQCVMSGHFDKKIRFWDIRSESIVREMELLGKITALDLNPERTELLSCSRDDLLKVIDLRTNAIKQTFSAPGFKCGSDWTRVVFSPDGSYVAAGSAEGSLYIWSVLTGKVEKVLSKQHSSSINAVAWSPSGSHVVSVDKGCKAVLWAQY

Turning to `O=C(CCl)Nc1cc(C(F)(F)F)cc(C(F)(F)F)c1` [KBO3], in assay [1] (uniprot Q676U5), the “100 Max” value was −47.09, the 100 ave is −47.09, the “500 Max” value worked out at 18.73 and the 500 ave is 18.73. For the same compound, in assay [2] (uniprot Q7L8L6), the “100 Max” value stood at 14.75, the 100 ave is given as 14.55, the “500 Max” value amounted to 57.23 and the 500 ave came out at 45.06.

In the case of `COc1ccc2c(c1)CCCN2C(=O)CCl` [KB02], the Liganded entry in assay [1] (ATG16L1 Res# 145, uniprot Q676U5) was “YES”; in assay [2] (FASTKD5 Res# 670, uniprot Q7L8L6), “YES”.
